Laboratory results as given in the supplement of paper PMC8882468.

What was measured:
Experiment in all cases: CTG-3D luminescence at 96 h relative to day-0 seeding control (ratio to day 0); higher = more growth / less cytotoxicity; PDxO 3D drug screen, 96 h, CTG-3D normalised to day-0 seeding control.
HCI-008 = system: HCI-008 (organoid from a HER2-enriched breast cancer xenograft)
HCI-003.E2 = system: HCI-003.E2 (organoid from an ER-positive breast cancer xenograft)
HCI-027 = system: HCI-027 (organoid from a triple-negative breast cancer xenograft)
HCI-012 = system: HCI-012 (organoid from a breast cancer xenograft)
HCI-016 = system: HCI-016 (organoid from a triple-negative breast cancer xenograft)
HCI-010 = system: HCI-010 (organoid from a breast cancer xenograft)

Nc1ccn([C@@H]2O[C@H](CO)[C@@H](O)C2(F)F)c(=O)n1 [gemcitabine]
CTG-3D luminescence at 96 h
Conditions	12.5 pM	0.00025 µM	0.005 µM	0.1 µM	1 µM	10 µM	100 µM	625 fM
HCI-008, days in culture: 228	1.403	1.8	1.3404	0.6483	0.596	0.717	0.362	1.48
HCI-008, days in culture: 244	1.25	1.74	1.74	1.26	0.69	0.873	0.465	2.18
HCI-010, days in culture: 52	2.22	2.17	0.657	0.455	0.327	0.234	0.123	2.32
HCI-010, days in culture: 65	1.64	1.79	0.508	0.23	0.163	0.0878	0.0546	1.68
HCI-010, days in culture: 103	3.39	3.81	0.867	0.503	0.479	0.241	0.123	3.42
HCI-012, days in culture: 143	2.04	2.09	1.86	0.136	0.104	0.118	0.054	1.61
HCI-012, days in culture: 162	2.63	2.42	1.38	0.146	0.113	0.113	0.0256	2.7
HCI-012, days in culture: 201	2.68	1.42	1.5	0.0613	0.383	0.0794	0.0454	1.69
HCI-016, days in culture: 153	2.99	1.91	2.52	0.96	0.509	0.286	0.0753	2.4
HCI-016, days in culture: 172	1.95	1.97	1.64	0.366	0.257	0.0907	0.0466	1.66
HCI-016, days in culture: 190	1.61	1.34	1.52	0.261	0.268	0.122	0.0539	1.21
HCI-016, days in culture: 199	1.57	1.28	1.3	0.174	0.16	0.112	0.0387	1.49
HCI-027, days in culture: 176	2.02	1.16	1.52	0.363	0.366	0.298	0.25	2.36
HCI-027, days in culture: 194	1.78	1.42	0.983	0.145	0.284	0.28	0.115	1.66
HCI-027, days in culture: 201	2.19	1.37	0.658	0.204	0.136	0.21	0.104	2.28

HCI-003.E2
Conditions	CTG-3D luminescence at 96 h
12.5 pM	2.3
0.00025 µM	2.24
0.005 µM	1.81
0.1 µM	1.35
1 µM	1.28
10 µM	1.18
100 µM	0.939
625 fM	2.08

CC1(C)CCC(c2ccc(Cl)cc2)=C(CN2CCN(c3ccc(C(=O)NS(=O)(=O)c4ccc(N[C@H](CCN5CCOCC5)CSc5ccccc5)c(S(=O)(=O)C(F)(F)F)c4)cc3)CC2)C1 [navitoclax]
CTG-3D luminescence at 96 h
Conditions	12.5 pM	0.00025 µM	0.005 µM	0.1 µM	1 µM	10 µM	100 µM	625 fM
HCI-008, days in culture: 228	1.53	1.62	1.55	1.61	1.2	0.854	0.0594	1.77
HCI-008, days in culture: 244	1.31	1.99	1.94	2.06	1.57	0.824	0.0293	2.52
HCI-010, days in culture: 52	2.01	2.27	2.15	0.695	0.0507	0.0304	0.0084	2.13
HCI-010, days in culture: 65	1.61	1.66	1.65	0.573	0.026	0.0135	0.00305	1.8
HCI-010, days in culture: 103	3.2	3.28	3.13	1.08	0.0477	0.0368	0.0191	2.7
HCI-012, days in culture: 143	1.69	2.26	2.2	2.7	2.07	2.21	0.239	1.81
HCI-012, days in culture: 162	2.02	2.3	2.33	2.56	2.17	2.21	0.134	2.94
HCI-012, days in culture: 201	3.09	2.12	1.75	1.93	2.2	0.271	-0.19	1.96
HCI-016, days in culture: 153	3.08	1.54	2.11	1.77	1.76	0.105	0.000169	3.01
HCI-016, days in culture: 172	2.29	2.07	1.85	1.43	1.55	0.931	0.00877	1.68
HCI-016, days in culture: 190	2.07	1.62	1.9	1.65	1.46	1.1	0.0887	1.24
HCI-016, days in culture: 199	2.03	2.16	2.22	1.82	2.1	0.827	0.0061	1.99
HCI-027, days in culture: 176	2.47	2.17	3.4	1.89	2.39	1.32	-0.194	3.28
HCI-027, days in culture: 194	2.18	1.78	2.01	2.17	2.24	1.75	0.198	2.27
HCI-027, days in culture: 201	3.21	2.62	3.27	3.18	2.73	1.5	0.0321	2.76

HCI-003.E2
Conditions	CTG-3D luminescence at 96 h
12.5 pM	1.98
0.00025 µM	2.09
0.005 µM	1.64
0.1 µM	2.22
1 µM	1.78
10 µM	1.12
100 µM	0.0236
625 fM	1.76
